What was measured:
[1] = molecular target: Btk (Rattus norvegicus, UniProt Q5S255); assay: Inhibition of Btk activity in blood (in vitro B cell activation assay, CD86, rat whole blood); format: cell-based; settings: Lewis rat whole blood diluted to 50%, anti-rat IgM + rat IL-4, 24 hours, CD86 on CD45RA positive B cells
Method: Alternatively, the inhibitory activity of the present compounds in blood was assessed in the following in vitro B cell activation assay. Whole blood was collected from the abdominal aorta of anaesthetized adult male Lewis rats and was anticoagulated with 100 U/ml sodium heparin. Blood was then diluted to 50% with high glucose DMEM (Amimed) supplemented with […] penicillin, […], 2 mM L-glutamin, 50 mg/ml dextran 40 and 5% FCS (Fetaclone I, Gibco). Then, 190 μl prediluted blood was mixed in 96 well U-bottomed microtiter plates (Nunc) with 10 μl of serial dilutions of test compounds in DMSO. […] Activation of B cells was measured by flow cytometry after staining for the B cell subset with PE-Cy5-labeled anti-ratCD45RA (Beckton-Dickinson) and for the activation marker CD86 (PE-labeled anti-rat CD86 (Beckton-Dickinson). All staining procedures were performed at RT for 30 min in the dark in 96-deep well V-bottomed microtiter plates (Corning) with BD Lysing Solution (Beckton-Dickinson).
Cytometric data was acquired on a FACScalibur flow cytometer (BD Biosciences) and the subpopulation of lymphocytes were gated according to size and granularity and further analyzed for expression of CD45RA and the activation markers. Data for the inhibition of B cell activation were calculated from the percentage of cells positively stained for activation markers within the CD45RA positive population.

[2] = molecular target: full-length human recombinant BTK (Homo sapiens (Human), UniProt Q06187); assay: Inhibition of Btk enzymatic activity (biochemical enzyme assay, Caliper); settings: 6.4 nM enzyme solution, 164 μM ATP solution, 30° C., 60 minutes
Sequence of full-length human recombinant BTK (Q06187 whole entry): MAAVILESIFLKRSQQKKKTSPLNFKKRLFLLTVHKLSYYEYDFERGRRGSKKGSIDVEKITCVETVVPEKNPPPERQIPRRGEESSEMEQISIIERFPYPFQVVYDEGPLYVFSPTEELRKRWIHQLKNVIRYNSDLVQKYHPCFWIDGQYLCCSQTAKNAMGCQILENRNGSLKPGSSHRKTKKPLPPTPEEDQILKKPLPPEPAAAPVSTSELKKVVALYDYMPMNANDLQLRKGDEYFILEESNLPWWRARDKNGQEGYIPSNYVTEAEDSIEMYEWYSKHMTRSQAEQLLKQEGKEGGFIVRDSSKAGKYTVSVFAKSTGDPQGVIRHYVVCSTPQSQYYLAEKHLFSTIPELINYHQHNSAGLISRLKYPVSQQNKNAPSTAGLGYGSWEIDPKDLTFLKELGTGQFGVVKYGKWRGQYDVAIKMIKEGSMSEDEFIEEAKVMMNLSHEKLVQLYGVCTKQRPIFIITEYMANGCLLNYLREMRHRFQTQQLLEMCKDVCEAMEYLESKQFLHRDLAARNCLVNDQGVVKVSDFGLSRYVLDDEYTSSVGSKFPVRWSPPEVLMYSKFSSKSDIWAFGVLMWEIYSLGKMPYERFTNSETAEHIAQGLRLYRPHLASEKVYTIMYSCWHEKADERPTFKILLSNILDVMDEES
Method: The inhibitory activity of the present compounds against Btk was assessed in a biochemical enzyme assay. […] The assay plates were prepared by addition of 50 nl per well of compound solution in 90% DMSO. […] Kinase reactions were analyzed on a Caliper LC3000 workstation by separating phosphorylated and unphosphorylated peptides and kinase activities were calculated from the amounts of newly formed phospho-peptide.

Sequence of Btk (Q5S255 1-660): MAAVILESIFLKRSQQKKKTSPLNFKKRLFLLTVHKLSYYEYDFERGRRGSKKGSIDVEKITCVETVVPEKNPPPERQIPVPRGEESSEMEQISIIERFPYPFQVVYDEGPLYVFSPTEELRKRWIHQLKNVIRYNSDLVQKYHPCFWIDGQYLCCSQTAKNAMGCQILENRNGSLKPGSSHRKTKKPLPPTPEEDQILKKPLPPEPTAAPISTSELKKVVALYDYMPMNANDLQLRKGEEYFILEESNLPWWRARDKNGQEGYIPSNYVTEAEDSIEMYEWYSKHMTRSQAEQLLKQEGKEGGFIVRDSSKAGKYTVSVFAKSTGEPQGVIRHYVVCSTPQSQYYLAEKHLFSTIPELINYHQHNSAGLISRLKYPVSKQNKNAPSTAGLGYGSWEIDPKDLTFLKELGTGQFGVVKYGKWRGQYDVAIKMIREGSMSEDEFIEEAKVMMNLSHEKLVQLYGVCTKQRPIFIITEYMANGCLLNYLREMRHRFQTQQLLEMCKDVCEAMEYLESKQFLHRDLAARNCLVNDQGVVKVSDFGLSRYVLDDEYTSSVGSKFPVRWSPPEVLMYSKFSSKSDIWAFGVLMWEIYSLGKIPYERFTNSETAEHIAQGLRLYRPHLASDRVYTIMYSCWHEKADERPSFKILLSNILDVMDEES

Structure (SMILES) | IC50 [1] | IC50 [2]
C=CC(=O)N1CC[C@H]1COc1c(N)ncnc1-c1cc(F)cc(N2CCc3cc(C4CC4)ccc3C2=O)c1CO [Example 35, (S)-2-(3-(5-((1-Acryloylazetidin-2-yl)methoxy)-6-aminopyrimidin-4-yl)-5-fluoro-2-(hydroxymethyl)phenyl)-6-cyclopropyl-3,4-dihydroisoquinolin-1(2H)-one] | 72 nM | 2 nM
C=CC(=O)N1CC[C@H](OC)[C@H]1COc1c(N)ncnc1-c1cc(F)cc(NC(=O)c2ccc(C3CC3)cc2F)c1C [Example 38, N-(3-(5-(((2R,3S)-1-Acryloyl-3-methoxypyrrolidin-2-yl)methoxy)-6-aminopyrimidin-4-yl)-5-fluoro-2-methylphenyl)-4-cyclopropyl-2-fluorobenzamide] | 70 nM | 2 nM
C=CC(=O)N1C[C@@H](C#N)C[C@H]1COc1c(N)ncnc1-c1cc(F)cc(NC(=O)c2ccc(C3CC3)cc2F)c1C [Example 40, N-(3-(5-(((2S,4S)-1-Acryloyl-4-cyanopyrrolidin-2-yl)methoxy)-6-aminopyrimidin-4-yl)-5-fluoro-2-methylphenyl)-4-cyclopropyl-2-fluorobenzamide] | 80 nM | 2 nM

Continued by falling IC50 [1], values first:

IC50 [1] | IC50 [2] | Structure (SMILES)
968 nM | 32 nM | C=CC(=O)N1CCC[C@@H](COc2c(N)ncnc2-c2cc(F)cc(NC(=O)c3ccc(C4CC4)cc3F)c2C)C1 [Example 37, (R)—N-(3-(5-((1-Acryloylpiperidin-3-yl)methoxy)-6-aminopyrimidin-4-yl)-5-fluoro-2-methylphenyl)-4-cyclopropyl-2-fluorobenzamide]
176 nM | 1 nM | C=CC(=O)N1C[C@H](C#N)C[C@H]1COc1c(N)ncnc1-c1cc(F)cc(NC(=O)c2ccc(C3CC3)cc2F)c1C [Example 39, N-(3-(5-(((2S,4R)-1-Acryloyl-4-cyanopyrrolidin-2-yl)methoxy)-6-aminopyrimidin-4-yl)-5-fluoro-2-methylphenyl)-4-cyclopropyl-2-fluorobenzamide]

From patent US9512084B2, “Amino pyrimidine derivatives” (Novartis AG, priority 2013, dated 2016)
